Results as given in EP0369453A2, “AGE-formation inhibitory agents” (Takeda Chemical Industries, Ltd., priority 1988, dated 1990).
Marks after values point to notes of the source that are not given here.

System: advanced glycosylated end products (AGE)
Assay: AGE formation inhibition: bovine serum albumin incubated with D-glucose, fluorescence measurement (method of Brownlee et al.)
Assay type: biochemical
Settings: bovine serum albumin 20%, D-glucose 100 mM, 0.5M phosphate buffer pH 7.4, 37° C for 7 days, fluorescence 370/440 nm, control = 100%
Method: The production of advanced glycosylated end products (AGE) and its measurement were carried out in accordance with the report by Brownlee et al. [Science, 232 1629 (1986)]. Thus, bovine serum albumin (fraction V, manufactured by Wako Pure Chemical Ind. of Japan, 20%), D-glucose (100 mM) and sodium azide (3 mM) were dissolved in 0.5M phosphate buffer (pH 7.4) to prepare a reaction solution (control). A test specimen was dissolved in dimethyl sulfoxide, and the solution was added to the reaction solution to the concentrations 1 mM, 0.5 mM and 0.2 mM, respectively. These solutions were incubated at 37° C for 7 days, whereupon the solutions, before and after incubation, were diluted with phosphate buffer, followed by measurement of fluoresceces (by use of RF-510 spectrofluorimeter, manufactured by Shimadzu Seisakusho of Japan) at 370 nm of the excitation wavelength and 440 nm of the emission wavelength. The variation in fluorescence (F) was utilized to calculate the formation ratio (%) following the formula described below. In the above tests, the blind test was carried out using the reaction solution free from D-glucose. The AGE were calculated by the following equation: Formation ratio = [ F(T) - F(B)]/[ F(C) - F(B)] x 100 [formula] where F(T), F(B) and F(C) are variations in fluorescence for test specimen, blind test specimen and control, respectively.

[1] = Concentration of test specimen: 0.5 mM
[2] = Concentration of test specimen: 1 mM

Row | SMILES | AGE Formation Ratio (% against the control value) [1] | AGE Formation Ratio (% against the control value) [2]
1 | O=C(NC(=S)Nc1nc(-c2ccc3c(c2)CCCC3)cs1)c1ccccc1 [Example 1, 1-benzoyl-3-[4-(5,6,7,8-tetrahydro-2-naphthyl)-2-thiazolyl] thiourea] | 43^2) % | –
2 | O=C(NC(=S)Nc1nc(-c2ccc3c(c2)CCCC3)c(-c2ccccc2)s1)c1ccccc1 [Example 22] | – | 31^1) %
3 | O=C(NC(=S)Nc1nc(-c2ccc3c(c2)CCCC3)cs1)c1ccc2c(c1)CCCC2 [Example 60] | 17^2) % | –
4 | O=C(NC(=S)Nc1nc(-c2ccc3ccccc3c2)cs1)c1ccccc1 [Example 15] | 46^2) % | –
5 | CC(C)c1sc(NC(=S)NC(=O)c2ccccc2)nc1-c1ccc2c(c1)CCCC2 [Example 21] | 19^2) % | –
6 | Cc1ccc(-c2csc(NC(=S)NC(=O)c3ccccc3)n2)cc1 [Example 4] | – | 47^1) %
7 | O=C(NC(=S)Nc1nc(-c2ccc3c(c2)CCCC3)cs1)c1c2ccccc2cc2ccccc12 [Example 63] | – | 54^1) %
8 | Cc1ccccc1C(=O)NC(=S)Nc1nc(-c2ccc3c(c2)CCCC3)cs1 [Example 27] | – | 0^1) %
9 | O=C(NC(=S)Nc1nc(-c2ccc3c(c2)OCCO3)cs1)c1ccccc1 [Example 13] | – | 45^1) %
10 | O=C(NC(=S)Nc1nc(-c2ccc3c(c2)CCCC3)cs1)c1ccc2ccccc2c1 [Example 34] | 0^2) % | –
11 | O=C(NC(=S)Nc1nc(-c2ccc3c(c2)CCCC3)cs1)c1ccc(F)cc1 [Example 26] | 34^2) % | –
12 | O=C(NC(=S)Nc1nc(-c2ccc3c(c2)CCCC3)cs1)c1ccc(Cl)cc1 [Example 23, 1-(4-chlorobenzoyl)-3-[4-(5,6.7,8-tetrahydro-2-naphthyl-)2-thiazolyl]thiourea] | – | 51^1) %
13 | O=C(NC(=S)Nc1nc(-c2ccc3c(c2)CCCC3)cs1)c1ccccc1C(F)(F)F [Example 47] | – | 16^1) %
14 | COc1ccc(-c2csc(NC(=S)NC(=O)c3ccccc3)n2)cc1 [Example 11] | – | 66^1) %
15 | CCCCC(CC)C(=O)NC(=S)Nc1nc(-c2ccc3c(c2)CCCC3)cs1 (stereo not drawn) [Example 72] | – | 58^1) %
16 | Cc1ccc(C)c(C(=O)NC(=S)Nc2nc(-c3ccc4c(c3)CCCC4)cs2)c1 [Example 42] | 35^2) % | –
17 | O=C(NC(=S)Nc1nc(-c2ccc(C(F)(F)F)cc2)cs1)c1ccccc1 [Example 8] | – | 58^1) %
18 | O=C(NC(=S)Nc1nc(-c2ccc3c(c2)CCCC3)cs1)c1ccncc1 [Example 31] | 53^2) % | –
19 | CCc1sc(NC(=S)NC(=O)c2ccccc2)nc1-c1ccc2c(c1)CCCC2 [Example 20] | 0^2) % | –
20 | O=C(NC(=S)Nc1nc(-c2ccc(Cl)cc2)cs1)c1ccccc1 [Example 10] | – | 30^1) %
21 | O=C(/C=C/c1ccccc1)NC(=S)Nc1nc(-c2ccc3c(c2)CCCC3)cs1 [Example 37] | – | 49^1) %
